Measurements reported in patent US20250057822A1, “PSYCHO[…] TREATING HEARING-RELATED DISORDERS” (THE REGENTS OF THE UNIVERSITY OF CALIFORNIA, priority 2021, published 2025).

Legend:
C57/B6 female mice = experiment: Auditory brainstem response (ABR) assay, wave I amplitude; type: in vivo; conditions: 1 mg/kg, 24 h post-treatment vs baseline (5-6 days pre-treatment), p<0.01, n=3
Description: The ABR amplitudes were analyzed at baseline (5-6 days pre-treatment) and 24 h post-treatment of vehicle (FIG. 2A and FIG. 2B) or 1 mg/kg of the psychoplastogen psilocin (FIG. 2C and FIG. 2D) at 8 and 16 kHz. Data are presented as mean±SEM. […] N=3 8-week old C57/B6 female mice per condition.
Auditory brainstem responses (ABRs) were recorded at baseline (5-6 days prior to treatment) and 24 h post treatment with psilocin (1 mg/kg). Mice were anesthetized via i.p. injections of ketamine (90 mg/kg) and xylazine (20 mg/kg). Subcutaneous electrodes were placed behind the right pinna (inverting) and vertex (active). A ground electrode was placed in the left leg of the mouse. Stimuli were 5-ms tone pips (2 ms cos2 rise-fall) delivered at 21/s with alternating stimulus polarity. Recorded electrical responses were filtered (300 Hz to 3 kHz) and averaged using BioSig software (TDT). The sound intensity level was decreased in 5 dB increments from 90 dB SPL-20 dB SPL. At each sound level 512 responses were averaged.
Wave I amplitudes were measured from the estimated baseline prior to the response to the peak of wave I in μV. ABR wave I amplitudes were analyzed at baseline (5-6 days pre-treatment) and 24 h post-treatment of psilocin (1 mg/kg). Data analyses and statistics were performed using Prism version 9.4 (GraphPad) and presented as mean±SEM. […]

[1] = tested on: inner hair cell ribbon synapses (organ of Corti); experiment: Inner hair cell ribbon synapse density 24 h after psilocin treatment; type: in vivo, mice; conditions: 1 mg/kg, 24 h after treatment, mean±SEM
Description: C57/B6 female mice, aged 8-weeks-old were treated with psilocin (1 mg/kg) (n=3) and Vehicle (0.9% saline) (n=2). […] Synapse density increase was not significant in the 8 kHz region (Vehicle: 16.50±3.826, psilocin: 17.79±3.826, P=0.5554). For each animal, 17-22 inner hair cells were quantified per frequency (8 kHz and 16 kHz regions of the organ of Corti). Data are presented as mean±SEM.*p<0.05.
8-week old C57/B6 mice were injected with 1 mg/kg psilocin or vehicle control (0).9% saline). 24 h later, mice were euthanized then inner ear tissues were collected for immunofluorescence. Isolated cochlea were punched into oval and round windows using a syringe needle and rinsed/fixed with 4% paraformaldehyde in 1×cold PBS. Then, cochlea were further fixed in 4% paraformaldehyde in 1×cold PBS for additional 2 hours at 4C0. Following fixation, samples were rinsed 3×20 min in PBS and dissected under a stereomicroscope to the three turns: apical, middle and basal. Tissues were permeabilized in PBS+0.25% Triton X-100 solution for 10 min at room temperature on a rocking platform; blocked with 10% goat serum and 25 mM glycine for 1 h at RT. […]

SMILES: CN(C)CCc1c[nH]c2cccc(O)c12 [psilocin]
- ABR wave I amplitude, change from baseline (C57/B6 female mice; 8 kHz): significantly increased
- ABR wave I amplitude, change from baseline (C57/B6 female mice; 16 kHz): significantly increased
- inner hair cell ribbon synapse density ([1]; 8 kHz region, not significant vs vehicle 16.50±3.826, P=0.5554): 17.79±3.826
- inner hair cell ribbon synapse density ([1]; 16 kHz region, significant vs vehicle 16±3.826, P=0.0169): 23.27±3.826
